ChEMBL document CHEMBL1132177, “PTP1B inhibition and antihyperglycemic activity in the ob/ob mouse model of novel 11-arylbenzo[b]naphtho[2,3-d]furans and 11-arylbenzo[b]naphtho[2,3-d]thiophenes” (J Med Chem, 1999)

Legend:
[1] = tested on: Mus musculus; assay: The compound was tested in vivo(ob/ob mouse) for intestinal absorption against insulin, at a concentration of 100 mg/kg/day.; assay type: functional
[2] = tested on: Mus musculus; assay: The compound was tested in vivo(ob/ob mouse) for intestinal absorption against plasma glucose at a concentration of 100 mg/kg/day.; assay type: functional
[3] = tested on: Mus musculus; assay: The compound was tested in vivo(ob/ob mouse) for intestinal absorption against insulin, at a concentration of 200 mg/kg/day.; assay type: functional
[4] = tested on: Mus musculus; assay: The compound was tested in vivo(ob/ob mouse) for intestinal absorption against plasma glucose at a concentration of 200 mg/kg/day.; assay type: functional
[5] = target: T1, Receptor-type tyrosine-protein phosphatase C (Homo sapiens, UniProt P08575); assay: The compound was tested in vitro for the inhibitory activity against CD45 antigen (human PTPases.)
T1 sequence (P08575 whole entry): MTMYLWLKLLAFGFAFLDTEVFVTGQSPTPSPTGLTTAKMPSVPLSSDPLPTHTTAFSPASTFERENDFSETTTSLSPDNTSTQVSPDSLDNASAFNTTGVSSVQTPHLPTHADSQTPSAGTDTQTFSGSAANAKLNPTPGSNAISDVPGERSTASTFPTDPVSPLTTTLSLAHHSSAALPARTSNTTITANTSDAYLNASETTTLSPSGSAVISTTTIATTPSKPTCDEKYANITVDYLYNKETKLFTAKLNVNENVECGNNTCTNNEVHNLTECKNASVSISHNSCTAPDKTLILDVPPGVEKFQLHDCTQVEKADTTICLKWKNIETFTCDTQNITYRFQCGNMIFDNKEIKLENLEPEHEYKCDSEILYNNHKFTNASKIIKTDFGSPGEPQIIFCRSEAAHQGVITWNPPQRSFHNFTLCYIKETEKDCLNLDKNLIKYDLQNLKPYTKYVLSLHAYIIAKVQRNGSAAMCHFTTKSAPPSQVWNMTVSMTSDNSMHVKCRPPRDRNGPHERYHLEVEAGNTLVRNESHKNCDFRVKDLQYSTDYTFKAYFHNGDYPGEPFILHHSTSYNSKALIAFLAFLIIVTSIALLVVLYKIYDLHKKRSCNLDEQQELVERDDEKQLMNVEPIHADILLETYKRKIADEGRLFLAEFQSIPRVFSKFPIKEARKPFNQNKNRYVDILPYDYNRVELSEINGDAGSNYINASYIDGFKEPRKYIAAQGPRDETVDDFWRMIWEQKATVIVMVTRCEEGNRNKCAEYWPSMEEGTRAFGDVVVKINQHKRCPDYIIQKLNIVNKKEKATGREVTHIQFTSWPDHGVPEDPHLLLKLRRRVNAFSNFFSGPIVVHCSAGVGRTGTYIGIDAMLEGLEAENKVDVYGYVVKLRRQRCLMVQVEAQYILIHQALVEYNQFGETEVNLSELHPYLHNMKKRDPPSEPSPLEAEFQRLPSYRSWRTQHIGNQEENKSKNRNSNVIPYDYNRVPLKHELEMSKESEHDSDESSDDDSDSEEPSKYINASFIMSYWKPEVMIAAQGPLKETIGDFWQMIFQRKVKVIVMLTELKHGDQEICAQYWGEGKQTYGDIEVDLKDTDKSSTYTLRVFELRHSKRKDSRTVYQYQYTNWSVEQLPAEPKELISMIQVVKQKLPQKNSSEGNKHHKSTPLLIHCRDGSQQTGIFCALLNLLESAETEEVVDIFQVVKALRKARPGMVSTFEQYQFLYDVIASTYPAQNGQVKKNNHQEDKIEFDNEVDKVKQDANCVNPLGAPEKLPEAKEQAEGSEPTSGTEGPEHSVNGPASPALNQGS

[6] = target: Dual specificity protein phosphatase 3 (Homo sapiens, UniProt P51452); assay: The compound was tested in vitro for the inhibitory activity against Dual specificity protein phosphatase 3 (SH-PTP1) (human PTPases.)
Chain of Dual specificity protein phosphatase 3 (P51452 whole entry): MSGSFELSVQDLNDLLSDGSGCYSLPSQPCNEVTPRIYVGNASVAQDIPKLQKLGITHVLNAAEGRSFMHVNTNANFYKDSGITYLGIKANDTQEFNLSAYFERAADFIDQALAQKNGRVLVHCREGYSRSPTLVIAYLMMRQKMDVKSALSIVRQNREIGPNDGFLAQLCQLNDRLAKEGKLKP

[7] = The compound was tested in vitro for the inhibitory activity against human HePTP360 (Hematopoietic protein tyrosine phosphatase)
[8] = tested on: Mus musculus; assay: The compound was tested in vivo(ob/ob mouse) for intestinal absorption against insulin, at a concentration of 10 mg/kg/day.; assay type: functional
[9] = tested on: Mus musculus; assay: The compound was tested in vivo(ob/ob mouse) for intestinal absorption against insulin, at a concentration of 25 mg/kg/day.; assay type: functional
[10] = tested on: Mus musculus; assay: The compound was tested in vivo(ob/ob mouse) for intestinal absorption against insulin, at a concentration of 5 mg/kg/day.; assay type: functional
[11] = tested on: Mus musculus; assay: The compound was tested in vivo(ob/ob mouse) for intestinal absorption against plasma glucose at a concentration of 10 mg/kg/day.; assay type: functional
[12] = tested on: Mus musculus; assay: The compound was tested in vivo(ob/ob mouse) for intestinal absorption against plasma glucose at a concentration of 1 mg/kg/day. (i.p.); assay type: functional; details: route intraperitoneal
[13] = tested on: Mus musculus; assay: The compound was tested in vivo(ob/ob mouse) for intestinal absorption against plasma glucose at a concentration of 25 mg/kg/day.; assay type: functional
[14] = tested on: Mus musculus; assay: The compound was tested in vivo(ob/ob mouse) for intestinal absorption against plasma glucose at a concentration of 5 mg/kg/day.; assay type: functional
[15] = target: T2, Tyrosine-protein phosphatase non-receptor type 12 (Homo sapiens, UniProt Q05209); assay: The compound was tested in vitro for the inhibitory activity against Protein tyrosine phosphatase PEST (SH-PTP1) (human PTPases.)
T2 sequence (Q05209 whole entry): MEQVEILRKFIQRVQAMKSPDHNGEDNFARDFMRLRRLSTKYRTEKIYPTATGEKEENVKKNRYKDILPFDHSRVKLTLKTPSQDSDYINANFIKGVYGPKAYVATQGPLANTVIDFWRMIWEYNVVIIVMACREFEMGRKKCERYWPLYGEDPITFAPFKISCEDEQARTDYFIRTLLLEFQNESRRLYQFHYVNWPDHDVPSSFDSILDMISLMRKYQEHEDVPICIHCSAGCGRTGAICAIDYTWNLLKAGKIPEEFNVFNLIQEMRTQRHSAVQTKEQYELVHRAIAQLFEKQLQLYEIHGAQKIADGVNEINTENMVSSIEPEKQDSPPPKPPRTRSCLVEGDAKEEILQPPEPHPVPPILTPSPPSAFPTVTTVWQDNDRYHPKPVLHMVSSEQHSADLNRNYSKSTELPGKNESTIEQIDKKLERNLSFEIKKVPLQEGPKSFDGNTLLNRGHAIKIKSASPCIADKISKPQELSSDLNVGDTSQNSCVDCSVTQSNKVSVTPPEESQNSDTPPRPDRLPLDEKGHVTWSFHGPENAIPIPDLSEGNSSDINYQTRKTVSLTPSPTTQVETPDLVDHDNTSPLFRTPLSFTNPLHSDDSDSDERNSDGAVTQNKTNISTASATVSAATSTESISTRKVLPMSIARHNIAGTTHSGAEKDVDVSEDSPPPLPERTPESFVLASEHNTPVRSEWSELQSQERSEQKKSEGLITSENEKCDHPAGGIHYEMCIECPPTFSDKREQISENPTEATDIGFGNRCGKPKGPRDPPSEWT

[16] = target: Tyrosine-protein phosphatase non-receptor type 6 (Homo sapiens, UniProt P29350); assay: The compound was tested in vitro for the inhibitory activity against Protein-tyrosine phosphatase 1C (SH-PTP1) (human PTPases.)
Chain of Tyrosine-protein phosphatase non-receptor type 6 (P29350 whole entry): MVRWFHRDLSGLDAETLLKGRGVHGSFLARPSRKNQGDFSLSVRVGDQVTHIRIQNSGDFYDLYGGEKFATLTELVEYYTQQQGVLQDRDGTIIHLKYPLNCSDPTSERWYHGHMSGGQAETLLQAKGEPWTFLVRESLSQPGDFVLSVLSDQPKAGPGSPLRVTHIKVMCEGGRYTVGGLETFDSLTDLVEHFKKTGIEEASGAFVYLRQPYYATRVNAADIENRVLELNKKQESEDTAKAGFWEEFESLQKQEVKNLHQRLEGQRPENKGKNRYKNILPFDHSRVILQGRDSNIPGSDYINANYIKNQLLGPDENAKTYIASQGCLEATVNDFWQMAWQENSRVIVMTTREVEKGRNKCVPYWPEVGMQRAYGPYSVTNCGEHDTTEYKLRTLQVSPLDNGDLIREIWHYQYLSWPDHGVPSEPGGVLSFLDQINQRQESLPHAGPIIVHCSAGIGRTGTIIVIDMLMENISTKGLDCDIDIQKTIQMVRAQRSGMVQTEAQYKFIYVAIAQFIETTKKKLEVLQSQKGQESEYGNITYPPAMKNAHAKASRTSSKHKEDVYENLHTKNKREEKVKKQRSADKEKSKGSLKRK

[17] = target: Receptor-type tyrosine-protein phosphatase alpha (Homo sapiens, UniProt P18433); assay: The compound was tested in vitro for the inhibitory activity against Protein-tyrosine phosphatase 1 alpha (LRP) (human PTPases.)
Chain of Receptor-type tyrosine-protein phosphatase alpha (P18433 whole entry): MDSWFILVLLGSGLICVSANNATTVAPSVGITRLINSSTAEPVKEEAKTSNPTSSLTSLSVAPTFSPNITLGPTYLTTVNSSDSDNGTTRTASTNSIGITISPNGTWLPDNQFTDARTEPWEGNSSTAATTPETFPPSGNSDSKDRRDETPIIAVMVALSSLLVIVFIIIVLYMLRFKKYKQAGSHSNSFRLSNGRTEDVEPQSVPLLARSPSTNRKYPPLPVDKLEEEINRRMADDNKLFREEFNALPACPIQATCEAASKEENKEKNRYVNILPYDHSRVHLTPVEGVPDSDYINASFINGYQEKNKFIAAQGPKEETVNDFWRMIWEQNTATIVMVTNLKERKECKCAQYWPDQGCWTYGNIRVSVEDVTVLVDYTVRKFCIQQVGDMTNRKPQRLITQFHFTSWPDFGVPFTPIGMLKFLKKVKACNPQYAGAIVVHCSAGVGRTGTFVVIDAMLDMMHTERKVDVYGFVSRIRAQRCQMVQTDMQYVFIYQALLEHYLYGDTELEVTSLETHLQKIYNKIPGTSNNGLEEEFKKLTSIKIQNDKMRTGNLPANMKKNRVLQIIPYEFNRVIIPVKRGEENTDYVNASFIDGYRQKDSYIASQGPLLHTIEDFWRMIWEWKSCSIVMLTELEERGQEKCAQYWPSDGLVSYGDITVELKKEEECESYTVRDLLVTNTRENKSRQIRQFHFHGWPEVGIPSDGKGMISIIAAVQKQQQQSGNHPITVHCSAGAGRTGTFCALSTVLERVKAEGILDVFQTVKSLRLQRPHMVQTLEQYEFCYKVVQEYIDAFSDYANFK

[18] = target: T3, Tyrosine-protein phosphatase non-receptor type 1 (Homo sapiens, UniProt P18031); assay: The compound was tested in vitro for the inhibitory activity against hPTP1B (human PTPases.)
T3 sequence (P18031 whole entry): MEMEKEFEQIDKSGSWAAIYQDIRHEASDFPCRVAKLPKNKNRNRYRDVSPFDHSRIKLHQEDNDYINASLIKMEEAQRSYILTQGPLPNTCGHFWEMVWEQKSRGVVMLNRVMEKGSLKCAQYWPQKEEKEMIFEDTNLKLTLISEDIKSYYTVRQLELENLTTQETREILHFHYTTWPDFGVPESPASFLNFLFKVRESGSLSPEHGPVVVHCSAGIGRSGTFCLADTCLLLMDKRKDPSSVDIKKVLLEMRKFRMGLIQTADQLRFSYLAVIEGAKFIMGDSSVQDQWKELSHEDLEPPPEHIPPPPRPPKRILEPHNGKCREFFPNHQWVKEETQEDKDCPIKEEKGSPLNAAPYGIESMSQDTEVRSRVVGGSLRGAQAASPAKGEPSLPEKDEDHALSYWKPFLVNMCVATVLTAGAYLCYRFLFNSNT

[19] = target: Receptor-type tyrosine-protein phosphatase beta (Homo sapiens, UniProt P23467); assay: The compound was tested in vitro for the inhibitory activity against Protein-tyrosine phosphatase beta (SH-PTP1) (human PTPases.)
Chain of Receptor-type tyrosine-protein phosphatase beta (P23467 whole entry): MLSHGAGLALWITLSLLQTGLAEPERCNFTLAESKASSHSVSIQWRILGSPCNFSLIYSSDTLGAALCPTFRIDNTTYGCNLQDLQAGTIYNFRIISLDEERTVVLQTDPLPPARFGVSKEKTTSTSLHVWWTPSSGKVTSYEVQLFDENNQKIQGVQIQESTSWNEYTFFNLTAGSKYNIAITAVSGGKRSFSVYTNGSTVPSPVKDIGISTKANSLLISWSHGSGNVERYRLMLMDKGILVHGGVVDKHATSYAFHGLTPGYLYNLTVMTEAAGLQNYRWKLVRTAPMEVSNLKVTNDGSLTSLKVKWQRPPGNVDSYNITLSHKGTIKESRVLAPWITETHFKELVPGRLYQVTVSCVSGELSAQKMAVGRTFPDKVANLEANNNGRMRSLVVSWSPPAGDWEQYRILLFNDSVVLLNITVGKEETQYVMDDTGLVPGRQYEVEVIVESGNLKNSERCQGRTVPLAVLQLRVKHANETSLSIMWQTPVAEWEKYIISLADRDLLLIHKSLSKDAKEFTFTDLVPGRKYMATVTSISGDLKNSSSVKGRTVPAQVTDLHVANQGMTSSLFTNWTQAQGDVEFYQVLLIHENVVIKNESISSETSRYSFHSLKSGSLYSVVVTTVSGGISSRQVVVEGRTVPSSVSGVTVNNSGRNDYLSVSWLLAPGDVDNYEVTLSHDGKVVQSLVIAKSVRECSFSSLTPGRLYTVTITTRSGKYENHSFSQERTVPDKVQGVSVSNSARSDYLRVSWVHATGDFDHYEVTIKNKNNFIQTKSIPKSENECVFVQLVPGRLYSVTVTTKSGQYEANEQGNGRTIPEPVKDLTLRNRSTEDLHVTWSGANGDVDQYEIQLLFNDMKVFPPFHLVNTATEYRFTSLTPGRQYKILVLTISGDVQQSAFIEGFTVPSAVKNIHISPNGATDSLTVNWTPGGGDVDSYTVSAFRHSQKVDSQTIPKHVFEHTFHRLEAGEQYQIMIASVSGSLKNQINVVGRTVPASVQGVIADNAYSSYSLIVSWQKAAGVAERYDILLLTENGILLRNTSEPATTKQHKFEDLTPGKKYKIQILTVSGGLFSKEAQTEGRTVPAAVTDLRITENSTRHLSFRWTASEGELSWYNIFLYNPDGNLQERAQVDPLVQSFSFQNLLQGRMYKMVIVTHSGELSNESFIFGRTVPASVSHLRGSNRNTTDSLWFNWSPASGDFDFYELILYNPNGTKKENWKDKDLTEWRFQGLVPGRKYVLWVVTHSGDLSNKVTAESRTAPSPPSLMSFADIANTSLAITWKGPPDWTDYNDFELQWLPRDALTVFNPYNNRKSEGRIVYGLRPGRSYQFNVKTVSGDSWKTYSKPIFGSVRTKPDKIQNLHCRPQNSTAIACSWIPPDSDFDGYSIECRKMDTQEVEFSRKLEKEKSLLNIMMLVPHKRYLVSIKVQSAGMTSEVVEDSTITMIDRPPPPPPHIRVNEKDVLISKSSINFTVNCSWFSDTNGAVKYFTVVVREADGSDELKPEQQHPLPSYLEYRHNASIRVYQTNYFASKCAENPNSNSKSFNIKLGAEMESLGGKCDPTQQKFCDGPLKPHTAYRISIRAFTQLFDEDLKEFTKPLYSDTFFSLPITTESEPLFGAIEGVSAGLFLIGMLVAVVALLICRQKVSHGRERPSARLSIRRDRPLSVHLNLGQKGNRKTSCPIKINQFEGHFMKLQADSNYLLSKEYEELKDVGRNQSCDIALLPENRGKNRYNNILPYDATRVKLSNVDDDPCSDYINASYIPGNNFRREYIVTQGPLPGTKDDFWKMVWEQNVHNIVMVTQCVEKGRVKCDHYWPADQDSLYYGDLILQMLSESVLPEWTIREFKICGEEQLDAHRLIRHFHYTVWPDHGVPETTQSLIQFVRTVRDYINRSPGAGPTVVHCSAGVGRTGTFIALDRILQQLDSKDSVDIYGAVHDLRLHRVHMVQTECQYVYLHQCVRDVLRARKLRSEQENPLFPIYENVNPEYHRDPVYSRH

[20] = tested on: Mus musculus; assay: The compound was tested in vivo(ob/ob mouse) for intestinal absorption against insulin, at a concentration of 90 mg/kg/day.; assay type: functional
[21] = tested on: Mus musculus; assay: The compound was tested in vivo(ob/ob mouse) for intestinal absorption against plasma glucose at a concentration of 90 mg/kg/day.; assay type: functional
[22] = target: T3, Tyrosine-protein phosphatase non-receptor type 1; assay: The compound was tested in vitro for the inhibitory activity against Protein-tyrosine phosphatase 1B (human PTPases.)
[23] = tested on: Mus musculus; assay: The compound was tested in vivo(ob/ob mouse) for intestinal absorption against insulin, at a concentration of 50 mg/kg/day.; assay type: functional
[24] = tested on: Mus musculus; assay: The compound was tested in vivo(ob/ob mouse) for intestinal absorption against insulin, at a concentration of 75 mg/kg/day.; assay type: functional
[25] = tested on: Mus musculus; assay: The compound was tested in vivo(ob/ob mouse) for intestinal absorption against plasma glucose at a concentration of 50 mg/kg/day.; assay type: functional
[26] = tested on: Mus musculus; assay: The compound was tested in vivo(ob/ob mouse) for intestinal absorption against plasma glucose at a concentration of 75 mg/kg/day.; assay type: functional
[27] = target: T3, Tyrosine-protein phosphatase non-receptor type 1; assay: The compound was tested for inhibitory activity against recombinant Protein-tyrosine phosphatase 1B (human).

Work on `CC1(COc2ccc(CC3SC(=O)NC3=O)cc2)CCCCC1` (centres undefined) [CIGLITAZONE] yielded an inhibition in vivo at 100 mg/kg/day [1] of 39% and an inhibition in vivo at 100 mg/kg/day [2] of 43%.

For `Oc1c(Br)cc(-c2c3ccccc3c(Br)c3sc4ccccc4c23)cc1Br`, the Decrease [1] was less than 15% and the Decrease [2] was less than 15%.

Work on `Cc1c(C)c2c(c(C)c1O)CCC(C)(COc1ccc(CC3SC(=O)NC3=O)cc1)O2` (centres undefined) [TROGLITAZONE] yielded an inhibition in vivo at 200 mg/kg/day [3] of less than 15% and an inhibition in vivo at 200 mg/kg/day [4] of 34%.

`O=C(O)[C@@H](Cc1ccccc1)Oc1c(Br)cc(-c2c3ccccc3c(Br)c3oc4ccccc4c23)cc1Br` gave an IC50 [5] of 6.3 µM, an IC50 [6] of 11 µM and an IC50 [7] of 2100 nM. For the same compound, the Decrease [8] was 69%, the Decrease [9] was 86% and the Decrease [10] was 56%. It also gave a Decrease [11] of 29%, a Decrease [12] of 38% and a Decrease [13] of 42%. The Decrease [14] was less than 15%, the IC50 [15] was 2200 nM and the IC50 [16] was 9 µM. The IC50 [17] was 13 µM, the IC50 [18] was 80 nM and the IC50 [19] was 500 nM.

`O=P(O)(O)COc1c(Br)cc(-c2c3ccccc3c(Br)c3sc4ccccc4c23)cc1Br` gave a Decrease [20] of less than 15% and a Decrease [21] of less than 15%.

`O=C(O)COc1c(Br)cc(-c2c3ccccc3c(Br)c3sc4ccccc4c23)cc1Br` gave an IC50 [5] of 9.1 µM, an IC50 [6] of 7.9 µM and an IC50 [7] of 2700 nM. It also gave a Decrease [1] of 61%, a Decrease [2] of 23% and an IC50 [15] of 2300 nM. It also gave an IC50 [16] of 5 µM, an IC50 [17] of 17 µM and an IC50 [22] of 390 nM. For the same compound, the IC50 [19] was 600 nM.

In the case of `O=C(O)[C@@H](Cc1ccccc1)Oc1c(Br)cc(-c2c3ccccc3c(Br)c3sc4ccccc4c23)cc1Br`, the Decrease [8] is reported as less than 15%, the Decrease [9] is reported as 72% and the Decrease [23] is reported as 71%. For the same compound, the Decrease [24] was 85%, the Decrease [11] was 26% and the Decrease [13] was 26%. For the same compound, the Decrease [25] was 35% and the Decrease [26] was 50%.

With `O=C(O)[C@@H](CCN1C(=O)c2ccccc2C1=O)Oc1c(Br)cc(-c2c3ccccc3c(Br)c3sc4ccccc4c23)cc1Br` the inhibition in vivo at 100 mg/kg/day [1] was less than 15%, the inhibition in vivo at 100 mg/kg/day [2] was less than 15% and the IC50 [27] was 11 nM.
